Values of other authors as cited in US5169665A, “Tris-hydroxymethyl alkane esters as low calorie fat mimetics” (Nabisco, Inc., priority 1990, dated 1992).

Key:
pancreatic lipase = settings: quoted from Minich, col. 4
[1] = rats fed ad libitum, versus control animals on a normal diet

SMILES: CCCCCCCC(=O)OCC(COC(=O)CCCCCCC)(COC(=O)CCCCCCC)COC(=O)CCCCCCC [pentaerythritol tetracaprylate]
- hydrolysis by pancreatic lipase (pancreatic lipase): not attacked, hydrolyzed, by the enzyme pancreatic lipase
- food consumption [1]: consumed more than control animals on a normal diet
